Four molecules from patent publication US20220411362A1, “DITERPENOID COMPOUNDS THAT ACT ON PROTEIN KINASE C (PKC)” (K-Gen, Inc., priority 2019, published 2022) can be followed below.

pKi: −log10 of the molar value.

Assay [1] has as its system KP-4 (Pancreatic) cell line. Nature of the assay: Proliferation of KP-4. The note with it: Homo sapiens, KP-4, read-out: IC50 in μM KP-4 (Pancreatic). In kind it is cell-based. In short, it runs like this:
(§1)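 Per-line seeding (KP-4 800-1000; HL-60 5000; Namalwa and Mino 5000-10000 cells/well), then 96 h with compound in ≤0.25% DMSO. Luminescence measured 10 min post CellTiter Glo; IC50 and % top inhibition derived from DMSO-normalised inhibition.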

Assay [2] has as its system Namalwa (Lymphoma) cell line. In words: Proliferation of Namalwa. In kind it is cell-based. Conditions: for ratio of (IC50 of K01)/(IC50 of compound), Namalwa: value in parenthesis; for IC50: read-out: IC50 in μM Namalwa (Lymphoma). The gist of the method: as §1
In assay [3] the test system is HL-60 (Leukemia) cell line. Nature of the assay: Proliferation of HL-60. In kind it is cell-based. Conditions: for ratio of (IC50 of K01)/(IC50 of compound), HL-60: value in parenthesis; for IC50: Homo sapiens, HL-60, read-out: IC50 in μM HL-60 (Leukemia). In short, it runs like this:
as §1

Another assay deals with T1, C1b domain of human PKCε (Homo sapiens, UniProt Q02156).
T1 construct: Genes encoding C1b domains of human PKCα, δ, ε, θ, and PKD1 (PKCμ) were synthesized; made in house; host or cells: E. coli BL21(DE3)
In words: Competitive 3H-PDBu binding to C1b domain of PKCε. In short, it runs like this:
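Ki derived by Cheng-Prusoff from IC50, with each protein batch's measured ^3H-PDBu Kd. Displacement of ^3H-PDBu from E. coli-produced GST-fused C1b domains or full-length human PKC was run 10 min at 37°C plus 20 min on ice, with filter capture and scintillation counting.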

Assay [4] concerns phosphorylation of CaMKii at T286 in Panc1 cells. In words: CaMKii phosphorylation in Panc1 cell line (Western blot). In kind it is cell-based. The note with it: 0.02 μM and 0.1 M, 48 hours (FIG. 5). Here is the method: Panc1 (a pancreatic cancer cell line) cells (˜5-8 millions) were seeded in 10 cm dishes (or ˜2 millions in 6 cm dishes) and treated next day with prostratin (K-101, 0.2 μM and 1 μM) or 0.02 μM and […] of K101-C1347, -C134801, and -C134802 for 48 hours. Cells were then collected/lysed for Western blot analysis. Protein quantification, SDS-PAGE, and Western blot procedures were performed as described in Example 65, except that a different lysis buffer (1 ml of 10×TNE [20 mL 1M Tris pH7.5; 30 mL 5M NaCl; 2 mL 0.5M EDTA; 48 mL d2H2O], 1 ml of 10% NP40, 7.7 mL of dH2O, 100 μL of 10× Protease inhibitors, 100 μL of 10× Phosphatase inhibitors, and 10 μl DTT) was used. To assess the effect of diterpenoid compounds on CaMKii phosphorylation, a phospho-specific antibody P-CaMKii (T286) (Abcam, cat #32678) was used for detection. Phosphorylation of CaMKii at T286 is a marker for activation of CaMKii kinase in the Wnt/Ca^2+ signaling pathway when […] and thus a downstream marker for inhibition of K-Ras stemness (Wang et al., Cell. 2015, 163(5):1237-51).
For orientation: Immunoblotting shows a protein as a band on a membrane.

T1 sequence (Q02156 242-292 limits assumed): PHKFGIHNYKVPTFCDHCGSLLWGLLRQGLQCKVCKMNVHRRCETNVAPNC

Take `CC1=C[C@H]2[C@@]3(O)[C@H](C)C[C@]4(OC(=O)[C@@H](N)CC5CCCCC5)[C@H]([C@@H]3C=C(CO)C[C@]2(O)C1=O)C4(C)C` [Compound K101-C1327]: the IC50 (usually the point on the concentration scale where inhibition reaches its midpoint) in assay [1] was in the range of 0.1 to 0.2 µM. Moreover, in assay [2], the “ratio of (IC50 of K01)/(IC50 of compound), Namalwa” value (“ratio … Namalwa” for short) came to 2.03 and the IC50 was in the range of 0.03 to 0.06 µM. In assay [3], the “ratio of (IC50 of K01)/(IC50 of compound), HL-60” value (from here on “ratio … HL-60”) is given as 2.32 and the IC50 was in the range of 0.03 to 0.06 µM. Moreover, at C1b domain of human PKCε, the pKi (commonly −log10 of the Ki, conventionally taken in molar units) is 7.52 to 9.00.

`CC1=C[C@H]2[C@@]3(O)[C@H](C)C[C@]4(OC(=O)[C@@H](N)[C@]56C[C@H]7C[C@H](C[C@H](C7)C5)C6)[C@H]([C@@H]3C=C(CO)C[C@]2(O)C1=O)C4(C)C` [Compound K101-C1347]: in assay [1], the IC50 is 0.001 to 0.01 µM. For the same molecule, in assay [2], the “ratio … Namalwa” value is recorded as 18.2 and the IC50 lay in the range of 0.001 to 0.01 µM. Also, in assay [3], the “ratio … HL-60” value amounted to 16.2 and the IC50 is 0.001 to 0.01 µM. The pKi on C1b domain of human PKCε is 8.00 to 8.30. Also, in assay [4], the “phosphorylation of CaMKii at T286” value is “induced phosphorylation of CaMKii at T286”.

As for `CC1=C[C@H]2[C@@]3(O)[C@H](C)C[C@]4(OC(=O)[C@H](N)CCCCCCc5ccccc5)[C@H]([C@@H]3C=C(CO)C[C@]2(O)C1=O)C4(C)C` [Compound K101-C134801], the IC50 in assay [1] was 0.03 to 0.06 µM. In addition, in assay [2], the “ratio … Namalwa” value is 4.93 and the IC50 was in the range of 0.01 to 0.03 µM. Also, in assay [3], the “ratio … HL-60” value amounted to 4.43 and the IC50 fell in the range of 0.01 to 0.03 µM. This molecule also gave a pKi on C1b domain of human PKCε of 7.52 to 9.00. For the same molecule, in assay [4], the “phosphorylation of CaMKii at T286” value is reported as “induced phosphorylation of CaMKii at T286”.

For the molecule `CC1=C[C@H]2[C@@]3(O)[C@H](C)C[C@]4(OC(=O)[C@@H](N)CCCCCCc5ccccc5)[C@H]([C@@H]3C=C(CO)C[C@]2(O)C1=O)C4(C)C` [Compound K101-C134802], the IC50 in assay [1], in assay [2] and in assay [3] was 0.001 to 0.01 µM in each case. Further, the “ratio … Namalwa” value in assay [2] is on record as 16.1. Further, the “ratio … HL-60” value in assay [3] was 12.1. At C1b domain of human PKCε, the pKi is 7.52 to 9.00. Further, the “phosphorylation of CaMKii at T286” value in assay [4] is reported as “induced phosphorylation of CaMKii at T286”.
